Assay results as given in patent US20060292073A1, “Stereoselective Synthesis of Amino Acid Analogs for Tumor Imaging” (priority 2005, published 2006).

Legend:
[1] = tested on: 9L gliosarcoma cells and a variety of human cancer cell lines; assay: Amino acid uptake assay in vitro as summarised in text; assay type: cell-based, rat; human; conditions: for intracellular accumulation: absence of inhibitors, after 30 minutes of incubation; for amino acid transport system used for cell entry: based on inhibition of uptake in the presence of BCH
Protocol: (§1) The tumor cells were initially grown as monolayers in T-flasks containing Dulbecco's Modified Eagle's Medium (DMEM) under humidified incubator conditions (37° C., 5% CO2/95% air). The growth media were supplemented with 10% fetal calf serum and antibiotics (10,000 units/ml penicillin and 10 mg/ml streptomycin). The growth media were replaced three times per week, and the cells were passaged so the cells would reach confluency in a week's time.
(§2) When the monolayers were confluent, cells were prepared for experimentation in the following manner. Growth media were removed from the T-flask, and the monolayer cells were exposed to 1× trypsin:EDTA for ˜1 minute to weaken the protein attachments between the cells and the flask. The flask was then slapped, causing the cells to release. Supplemented media were added to inhibit the proteolytic action of the trypsin, and the cells were aspirated through an 18 Ga needle until they were monodispersed. A sample of the cells was counted under a microscope using a hemocytometer, and the live/dead fraction estimated through trypan blue staining (>98% viability). The remainder of the cells was placed into a centrifuge tube, centrifuged at 75×g for 5 minutes, and the supernatant was removed. The cells were then resuspended in amino-acid/serum-free DMEM salts.
(§3) In this study, approximately 4.55×10^5 cells were exposed to either [^18F]10 (anti-FACBC) or [^18F]15 (syn-FACBC, 5 μCi) in 3 ml of amino acid free media ±transporter inhibitors (10 mM) for 30 minutes under incubator conditions in 12×75 mm glass vials. Each assay condition was performed in duplicate. After incubation, cells were twice centrifuged (75×g for 5 minutes) and rinsed with ice-cold amino-acid/serum-free DMEM salts to remove residual activity in the supernatant. The vials were placed in a Packard Cobra II Auto-Gamma counter, the raw counts decay corrected, and the activity per cell number determined. The data from these studies (expressed as percent uptake relative to control) were graphed using Excel, with statistical comparisons between the groups analyzed using a 1-way ANOVA (GraphPad Prism software package).
(§4) To test the hypothesis that [^18F]10 and [^18F]15 enter cells predominantly via the L-type amino acid transport system, amino acid uptake assays using cultured 9L gliosarcoma and a variety of human cancer cell lines in the presence and absence of two well-described inhibitors of amino acid transport were performed. […] The A- and L-type amino acid transport systems have been implicated in the in vivo uptake of radiolabeled amino acids used for tumor imaging.

[2] = tested on: 9L gliosarcoma tumor / contralateral normal brain; assay: Rodent biodistribution in rats implanted intracranially with 9L gliosarcoma cells; assay type: in vivo, male Fischer rats; conditions: for retention of radioactivity in tumor tissue: 60 minutes after intravenous injection, intracranial 9L tumor; for Ratios of tumor uptake to normal brain uptake: at 60 and 120 minutes after intravenous injection, printed as x:1
Protocol: All animal experiments were carried out under humane conditions and were approved by the Institutional Animal Use and Care Committee (IUCAC) at Emory University. Rat 9L gliosarcoma cells were implanted into the brains of male Fischer rats. Briefly, anesthetized rats placed in a stereotactic head holder were injected with a suspension of 4×10^4 rat 9L gliosarcoma cells (1×10^7 per mL) in a location 3 mm right of midline and 1 mm anterior to the bregma at a depth of 5 mm deep to the outer table. The injection was performed over the course of 2 minutes, and the needle was withdrawn over the course of 1 minute to minimize the backflow of tumor cells. The burr hole and scalp incision were closed, and the animals were returned to their original colony after recovering from the procedure. Intracranial tumors developed that produced weight loss, apathy and hunched posture in the tumor-bearing rats, and the animals were used at 17-19 days after implantation. Of the 30 animals implanted with tumor cells, 25 developed tumors visible to the naked eye upon dissection and were used in the study. FIGS. 1-3 show the results of these studies.
The tissue distribution of radioactivity was determined in 16 normal male Fischer 344 rats (200-250 g) after intravenous injection of ˜85 μCi of [^18F]10 or [^18F]15 in 0.3 mL of sterile water. The animals were allowed food and water ad libitum before the experiment. The tail vein injections were performed in awake animals using a RTV-190 rodent restraint device (Braintree Scientific) to avoid mortality accompanying anesthesia in the presence of an intracranial mass. Groups of four rats were killed at 5 minutes, 30 minutes, 60 minutes and 120 minutes after injection of the dose. The animals were dissected, and selected tissues were weighed and counted along with dose standards in a Packard Cobra II Auto-Gamma Counter. The raw counts were decay corrected, and the counts were normalized as the percent of total injected dose per gram of tissue (% ID/g). A comparison of the uptake of activity in tumor tissue, […] at each time point was analyzed using a 1-way ANOVA (GraphPad Prism software package). FIGS. 1-3 below show the results of these studies.

[3] = tested on: DU145 Prostate tumor cells; assay: Amino acid uptake assay in vitro, DU145 tumor cells ± transporter inhibitors; assay type: cell-based, human; conditions: 30 minutes incubation
Protocol: as §1, §2, §3, §4

[4] = tested on: SKOV3 Ovarian tumor cells; assay: Amino acid uptake assay in vitro, SKOV3 tumor cells ± transporter inhibitors; assay type: cell-based, human; conditions: 30 minutes incubation
Protocol: as §1, §2, §3, §4

A549 Lung tumor cells = assay: Amino acid uptake assay in vitro, A549 tumor cells ± transporter inhibitors; assay type: cell-based, human; conditions: 30 minutes incubation
Protocol: as §1, §2, §3, §4

[5] = tested on: MB 468 Breast tumor cells; assay: Amino acid uptake assay in vitro, MB 468 tumor cells ± transporter inhibitors; assay type: cell-based, human; conditions: 30 minutes incubation
Protocol: as §1, §2, §3, §4

U87 Glioma tumor cells = assay: Amino acid uptake assay in vitro, U87 tumor cells ± transporter inhibitors; assay type: cell-based, human; conditions: 30 minutes incubation
Protocol: as §1, §2, §3, §4

Row | Structure (SMILES) | intracellular accumulation [1] | amino acid transport system used for cell entry [1] | retention of radioactivity in tumor tissue [2] | Ratios of tumor uptake to normal brain uptake [2] | Uptake in tumor cells expressed as percent uptake relative to control ([3]; DU145, BCH 10 mM) [%] | Uptake in tumor cells expressed as percent uptake relative to control ([3]; DU145, MeAIB 10 mM) [%] | Uptake in tumor cells expressed as percent uptake relative to control ([3]; DU145, no inhibitor) [%] | Uptake in tumor cells expressed as percent uptake relative to control ([4]; SKOV3, BCH 10 mM) [%] | Uptake in tumor cells expressed as percent uptake relative to control ([4]; SKOV3, MeAIB 10 mM) [%] | Uptake in tumor cells expressed as percent uptake relative to control ([4]; SKOV3, no inhibitor) [%] | Uptake in tumor cells expressed as percent uptake relative to control (A549 Lung tumor cells; A549, BCH 10 mM) [%] | Uptake in tumor cells expressed as percent uptake relative to control (A549 Lung tumor cells; A549, MeAIB 10 mM) [%] | Uptake in tumor cells expressed as percent uptake relative to control (A549 Lung tumor cells; A549, no inhibitor) [%] | Uptake in tumor cells expressed as percent uptake relative to control ([5]; MB 468, BCH 10 mM) [%] | Uptake in tumor cells expressed as percent uptake relative to control ([5]; MB 468, MeAIB 10 mM) [%] | Uptake in tumor cells expressed as percent uptake relative to control ([5]; MB 468, no inhibitor) [%] | Uptake in tumor cells expressed as percent uptake relative to control (U87 Glioma tumor cells; U87, BCH 10 mM) [%] | Uptake in tumor cells expressed as percent uptake relative to control (U87 Glioma tumor cells; U87, MeAIB 10 mM) [%] | Uptake in tumor cells expressed as percent uptake relative to control (U87 Glioma tumor cells; U87, no inhibitor) [%]
1 | NC1(C(=O)O)CC([18F])C1 (stereo not drawn) [Anti-[^18F]FACBC, trans-(anti-) 1-amino-3-[^18F]fluorocyclobutane-1-carboxylic acid] | 0.43 % of the initial dose per million cells | substrates for the L-type amino acid transport system | high | 6.5 | 4.16 | 13.90 | 16.06 | 1.44 | 6.39 | 4.68 | 2.69 | 11.02 | 12.17 | 4.43 | 14.80 | 15.51 | 1.51 | 3.45 | 3.41
2 | N[C@]1(C(=O)O)C[C@H]([18F])C1 [Syn-[^18F]FACBC, syn-[^18F]1-amino-3-fluorocyclobutane-1-carboxylic acid] | 0.50 % of the initial dose per million cells | substrates for the L-type amino acid transport system | high | 5.3 | 9.11 | 17.16 | 20.27 | 5.87 | 8.48 | 11.67 | 3.85 | 9.61 | 11.91 | 10.93 | 28.25 | 33.53 | 5.00 | 14.80 | 24.77
